What is called IC50 is the concentration that inhibits the measured activity by half.

This note sets out measurements from patent publication US11767296B2, “Heteroaryl compounds as kinase inhibitor” (FUJIAN HAIXI PHARMACEUTICALS CO., LTD, priority 2018, dated 2023).

The target of one experiment is T1, CSF-1R (Homo sapiens, UniProt P07333).
T1 construct: purchased Invitrogen PV3249
Description: CSF-1R kinase assay (HTRF kinEASE TK). Conditions: ATP 2.5 uM, enzyme 0.012 ng/ul, read-out: In vitro inhibitory activity of CSF-1R IC50. The experiment is classed as biochemical. On the procedure: Example 53: CSF-1R Kinase Assay
I. Materials and Instruments
• 2104 EnVision® Multilabel Reader (PerkinElmer) • OptiPlate-384, White Opaque 384-well MicroPlate (Cat.6007290, PerkinElmer) • HTRF kinEASE TK (Cat.62TKOPEC, Cisbio) • CSF-1R(Cat. PV3249, Invitrogen) • ATP 10 mM (Cat. PV3227, Invitrogen) • DTT 1 M (Cat. D5545, Sigma) • MgCl2 1 M (Cat. M8266, Sigma) • MnCl2 1 M (Cat.244589. Sigma)
II. Experimental Procedure
Substrate-TK and ATP were diluted to 5 times of the reaction concentration by 1×Kinase Buffer. CSF1R enzyme was diluted to 5×enzyme solution by 1×kinase buffer. Sa-XL665 was diluted to 4×Sa-XL665 solution by Detection Buffer. 100×TK-Ab-Cryptate Solution TK-Ab-Cryptate was diluted to 100×TK-Ab-Cryptate solution by Detection Buffer. 2. Experimental Procedure After all reagents had been prepared according to the above method, except enzymes, the sample was added after equilibrium to room temperature. • a. Firstly, 2.5% DMSO solution was prepared by using 1×kinase buffer (the high concentration of DMSO will affect the reaction and control the final concentration of DMSO to 1%). Then the compounds were diluted by 2.5% DMSO solution corresponding to the enzyme. The screening concentration of the compounds was 4 times gradient dilution from 1000 nM, and 8 concentrations. In addition to the control pore, 4 microlitres of diluted solution containing 2.5% DMSO were added to the reaction pore and 4 microlitres of previously prepared solution containing 2.5% DMSO were added to the control pore. • b. 2 microlitres of previously prepared TK-biotin substrate solution was added to all reaction pore (the amount of substrate used for enzyme screening is shown in Table 15). • c. Adding 2 microlitres of CSF1R enzyme solution of corresponding concentration (the amount of enzyme is shown in Table 15) to all reaction pore except negative pore. The negative pore is supplemented with 2 microlitres of enzyme corresponding to 1 xkinase buffer. After mixing, the compound and enzyme can be fully combined by incubating at room temperature for 10 minutes. • d. Enzyme reaction was initiated by adding 2 microlitres ATP solution of corresponding concentration to all reaction pore. The reaction time was 30 minutes (the corresponding ATP concentration and reaction time at enzyme screening were shown in Table 15). • e. Preparing the test solution 5 minutes before the end of kinase reaction. Streptavidin-XL665 and TK antibody europium cryptate (1:100) were prepared with detection buffer in the kit (the corresponding concentration of detection reagent for enzyme screening is shown in Table 15). • f. After the kinase reaction, 5 microlitres of diluted Streptavidin-XL665 were added to all reaction pore, mixing, and then the diluted TK antibody europium cryptate solution was added immediately. • g. After 1 hour reaction at room temperature, the fluorescence signals (320 nm stimulation, 665 nm, 615 nm emission) were detected by ENVISION (Perkinelmer) instrument. The inhibition rate of each pore was calculated by full active pore and background signal pore, and the average value of complex pore was obtained. Meanwhile, the half inhibitory activity (IC50) of each compound was fitted by professional drawing analysis software PRISM 5.0. The Flow Chart of the Experiment is as Follows:
3. Data Analysis Emission Ratio (ER)=665 nm Emission signal/615 nm Emission signal Inhibitory rate=(ERpositive−ERsample)/(ERpositive−ERnegative)*100% Using Graphpad Prism 5 and log (inhibitor) vs. normalized response to fit IC50 curve and calculate IC50 value. The IC50 data of the compounds prepared in Representative Examples 3-52 are as follows (Table 18): […]
On the technique in general: Time-resolved FRET reads energy transfer from a long-lived donor to a nearby acceptor.

In another experiment the test system is NFS-60 cells. As to the kind of experiment: NFS-60 cell assay (CCK proliferation, M-CSF stimulated). The class given is cell-based. Conditions: Mus musculus, compound 0.5 uM, 72 h, 40 ng/mL M-CSF, read-out: inhibition ratio % (NFS-60 cell proliferation). On the procedure:
Example 54: NFS-60 Cell Assay
1. Experimental Materials
Mouse Myelogenous Leukemia Cells (NFS-60)
Using DMSO to dissolve, and the required concentration was prepared with full culture medium without factors.
Penicillin-streptomycin: TRANS
Mouse M-CSF/CSF-1 Protein: Sino Biological Inc, No. 51112-MNAH
M-CSF: Qilu Pharmaceutical co., Ltd.
The logarithmic growth phase of NFS-60 cells (1640+10% FBS+40 ng/ml M-CSF+1% Penicillin-streptomycin) were centrifuged (1000 r/min) and cultured in a factor-free medium at 37° C., 5% CO2 for 24 hours. Centrifugating (1000 r/min), the culture medium was replaced by new culture medium including 40 ng/mL factors, and inoculated on 96-well plate by 2*10^4 cells/mL, 100 μL/hole. After 16 hours, the tested compounds were added 10 μL/hole, 3 duplicate holes per compound, 37° C., 5% CO2, continue to cultured for 72 h. Then 10 μL CCK reagent was added to each hole. After incubation for 4 hours, the absorbance of each hole was measured at 450 nm wavelength. According to Formula: Inhibitory rate (%)=(1-OD value of test pore/OD value of solvent control pore)×100% 3. Experimental Results The experimental results of the inhibition of NFS-60 cell proliferation by the compounds prepared in Example 3-52, 0.5 uM, are shown in the following table: […]

Experiment [1] concerns MC-38 transplanted tumors. Description: Animal pharmacodynamics experiment: MC-38 transplanted tumors in C57 mice. The experiment is classed as in vivo. Conditions: 2 weeks; for inhibition in vivo at 30 mg/kg: Mus musculus, MC-38, po, 336 h, compound alone, 30 mg/kg intragastrically daily, read-out: inhibition ratio (tumor size, MC-38 transplanted tumors); for inhibition ratio (tumor size, MC-38 transplanted tumors): compound 30 mg/kg intragastrically daily + anti-PD1 10 mg/kg i.p. once every 3 days. On the procedure: Example 55: Animal Pharmacodynamics Experiment
In this study. MC-38 cell lines were inoculated in C57 mice
Experimental animal: C57 mice, male, 5-6 weeks old (18-22 g)
Inoculation: 2×10^6/0.1 mL, Matrigel is added in 3:1 ratio
PD1: InVivoMAb anti-mouse PD-1 (CD279). BioXCell
Group: On day 4 after inoculating, all the mice were divided into 13 groups, respectively model group, the anti-PD1 2 mg/kg group, anti-PD110 mg/kg group, testing compounds alone, and the tested compound combine with anti-PD1 10 mg/kg. Compounds were intragastrically administered daily at a dose of 30 mg/kg and anti-PD1 was intraperitoneally injected once every 3 days. The drug was administered continuously for 2 weeks. In model group, 80% glycerol+20% CMC-Na was given daily.
Results: The experimental results of anti-PD1 combined with the compounds prepared in the representative example 3-52 on the inhibition of tumor size of MC-38 transplanted tumors are as follows: […]

Bounds are passed on as bounds.

T1 sequence (P07333 20-972): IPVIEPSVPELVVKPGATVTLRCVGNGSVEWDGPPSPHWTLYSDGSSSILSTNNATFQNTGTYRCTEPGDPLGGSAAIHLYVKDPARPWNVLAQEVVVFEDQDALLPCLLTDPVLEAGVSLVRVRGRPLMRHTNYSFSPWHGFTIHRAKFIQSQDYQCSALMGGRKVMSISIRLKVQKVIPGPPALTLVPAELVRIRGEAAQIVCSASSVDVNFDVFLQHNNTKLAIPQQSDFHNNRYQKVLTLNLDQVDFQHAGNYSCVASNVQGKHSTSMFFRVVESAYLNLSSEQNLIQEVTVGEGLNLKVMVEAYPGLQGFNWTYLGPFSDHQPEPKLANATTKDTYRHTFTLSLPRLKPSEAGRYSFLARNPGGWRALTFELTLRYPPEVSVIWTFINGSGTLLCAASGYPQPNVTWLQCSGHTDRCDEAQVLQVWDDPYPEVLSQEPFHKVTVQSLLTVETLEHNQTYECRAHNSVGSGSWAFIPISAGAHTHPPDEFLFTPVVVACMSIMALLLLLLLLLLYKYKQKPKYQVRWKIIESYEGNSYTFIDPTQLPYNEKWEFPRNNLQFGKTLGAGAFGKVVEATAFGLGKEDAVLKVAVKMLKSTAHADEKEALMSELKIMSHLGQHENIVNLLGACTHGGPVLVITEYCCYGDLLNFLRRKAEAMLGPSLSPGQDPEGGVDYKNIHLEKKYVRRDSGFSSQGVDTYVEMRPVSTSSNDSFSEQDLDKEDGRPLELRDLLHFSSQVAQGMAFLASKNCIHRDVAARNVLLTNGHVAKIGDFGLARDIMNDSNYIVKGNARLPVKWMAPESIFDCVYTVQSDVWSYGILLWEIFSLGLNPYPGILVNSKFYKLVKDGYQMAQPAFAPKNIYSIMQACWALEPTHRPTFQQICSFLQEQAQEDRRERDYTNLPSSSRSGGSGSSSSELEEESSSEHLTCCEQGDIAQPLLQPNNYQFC

For `Cc1cccc(C(=O)Nc2cccc([C@@H](C)Oc3cc(Cl)cnc3N)c2)c1` [Compound 72, (R)-N-(3-(1-((2-amino-5-chloropyridin-3-yl)oxy)ethyl)-phenyl)-3-methylbenzamide], the IC50 on CSF-1R was not above 50 nM. The inhibition at 0.5 µM in the experiment with NFS-60 cells is not below 50%. For the same compound, in experiment [1], the inhibition in vivo at 30 mg/kg is less than 10% and the “inhibition ratio (tumor size, MC-38 transplanted tumors)” value (“inhibition ratio” below) is listed as “++ (++: 10%-30%)”.

For `C[C@@H](Oc1cc(Cl)cnc1N)c1cccc(NC(=O)c2cccc(S(C)(=O)=O)c2)c1` [Compound 78, (R)-N-(3-(1-((2-amino-5-chloropyridin-3-yl)oxy)ethyl)-phenyl)-3-(methylsulfonyl)-benzamide], the IC50 at CSF-1R was not above 50 nM. For the same compound, in experiment [1], the inhibition in vivo at 30 mg/kg was less than 10% and the “inhibition ratio” value is listed as “++ (++: 10%-30%)”.

For the compound `Cc1cncc(C(=O)Nc2cccc([C@@H](C)Oc3cc(Cl)cnc3N)c2)c1` [Compound 83, (R)-N-(3-(1-((2-amino-5-chloropyridin-3-yl)oxy)ethyl)-phenyl)-5-methylnicotinamide], on CSF-1R, the IC50 was not above 50 nM. Further, in experiment [1], the inhibition in vivo at 30 mg/kg was less than 10% and the “inhibition ratio” value was “+++ (+++: ≥30%)”.

For `Cc1cccc(C(=O)Nc2cccc([C@@H](C)Oc3cc(Cl)cnc3N)c2)c1Cl` [Compound 85, (R)-N-(3-(1-((2-amino-5-chloropyridin-3-yl)oxy)ethyl)-phenyl)-2-chloro-3-methylbenzamide], at CSF-1R, the half-inhibitory concentration (IC50) was not above 50 nM. Moreover, in experiment [1], the inhibition in vivo at 30 mg/kg is less than 10% and the “inhibition ratio” value is “+++ (+++: ≥30%)”.

In the case of `C[C@@H](Oc1cc(Cl)cnc1N)c1cccc(NC(=O)c2cccc(C3CC3)c2)c1` [Compound 86, (R)-N-(3-(1-((2-amino-5-chloropyridin-3-yl)oxy)ethyl)-phenyl)-3-cyclopropylbenzamide], the IC50 on CSF-1R is not above 50 nM. Moreover, in experiment [1], the inhibition in vivo at 30 mg/kg was less than 10% and the “inhibition ratio” value is “+++ (+++: ≥30%)”.

As to `C[C@@H](Oc1cc(-c2cnn(C)c2)cnc1N)c1cccc(NC(=O)c2cccc(N(C)C)c2)c1` [Compound 178, (R)-N-(3-(1-((2-amino-5-(1-methyl-1H-pyrazol-4-yl)pyridin-3-yl)oxy)ethyl)phenyl)-3-(dimethylamino)benzamide], at CSF-1R, the IC50 is not above 50 nM. Moreover, the inhibition at 0.5 µM in the experiment on NFS-60 cells was not below 50%. In experiment [1], the inhibition in vivo at 30 mg/kg fell in the range of 10 to 30% and the “inhibition ratio” value is “+++ (+++: ≥30%)”.

Turning to `Cc1ccc(C(=O)Nc2cccc([C@@H](C)Oc3cc(-c4cnn(C)c4)cnc3N)c2)cc1N(C)C` [Compound 179, (R)-N-(3-(1-((2-amino-5-(1-methyl-1H-pyrazol-4-yl)pyridin-3-yl)oxy)ethyl)phenyl)-3-(dimethylamino)-4-methylbenzamide], the IC50 at CSF-1R is not above 50 nM. The inhibition at 0.5 µM in the experiment on NFS-60 cells was not below 50%. In experiment [1], the inhibition in vivo at 30 mg/kg was in the range of 10 to 30% and the “inhibition ratio” value is given as “+++ (+++: ≥30%)”.

Regarding `CSc1cc(C(=O)Nc2cccc([C@@H](C)Oc3cc(-c4cnn(C)c4)cnc3N)c2)ccc1C` [Compound 182, (R)-N-(3-(1-((2-amino-5-(1-methyl-1H-pyrazol-4-yl)pyridin-3-yl)oxy)ethyl)phenyl)-4-methyl-3-(methylthio)benzamide], the 50% inhibitory concentration (IC50) at CSF-1R was not above 50 nM. In addition, the inhibition at 0.5 µM in the experiment on NFS-60 cells is not below 50%. In experiment [1], the inhibition in vivo at 30 mg/kg is 10 to 30% and the “inhibition ratio” value is recorded as “+++ (+++: ≥30%)”.
